IC50 data for 20 molecules are collected here from patent US20250270200A1, “CTPS1 INHIBITORS AND USES THEREOF” (Nimbus Clotho, Inc., priority 2022, published 2025).

The target in this test is T1, human CTPS1 (Homo sapiens, UniProt P17812).
T1 sequence (P17812 1-591): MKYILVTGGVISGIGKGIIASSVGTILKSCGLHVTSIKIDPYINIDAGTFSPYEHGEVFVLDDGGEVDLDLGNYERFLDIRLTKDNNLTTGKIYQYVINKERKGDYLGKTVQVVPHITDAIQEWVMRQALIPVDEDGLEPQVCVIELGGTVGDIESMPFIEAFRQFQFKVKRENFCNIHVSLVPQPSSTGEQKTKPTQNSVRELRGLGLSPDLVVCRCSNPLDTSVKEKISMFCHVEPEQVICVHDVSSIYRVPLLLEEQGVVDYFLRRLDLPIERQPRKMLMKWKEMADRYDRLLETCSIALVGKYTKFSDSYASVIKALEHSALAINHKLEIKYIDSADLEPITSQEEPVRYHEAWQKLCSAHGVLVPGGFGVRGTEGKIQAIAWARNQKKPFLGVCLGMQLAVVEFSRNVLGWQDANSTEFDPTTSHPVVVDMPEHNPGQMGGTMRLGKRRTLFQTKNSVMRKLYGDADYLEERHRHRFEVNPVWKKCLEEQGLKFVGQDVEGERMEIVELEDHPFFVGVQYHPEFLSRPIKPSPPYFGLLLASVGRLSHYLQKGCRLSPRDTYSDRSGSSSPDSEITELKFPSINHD
As to the kind of experiment: ADP-Glo assay, human CTPS1 enzyme inhibition. Format: biochemical. The note with it: wild-type human CTPS1, 25 nM enzyme; ADP-Glo; read-out: ADP-Glo_WT_hCTPS1—25 nM_IC50 (IC50). The essentials: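 Full-length tagged human CTPS1 (25 nM) pre-incubated 10 min at 25° C with compound, then 10 min with ATP (120 μM) and UTP (160 μM); reaction started with L-glutamine (100 μM) and GTP (60 μM), 1% DMSO, in HEPES pH 7.4, 10 mM Mg2+, 5 mM KCl, 2 mM DTT. Run within linear phase at 25° C; ADP measured by ADP-Glo luminescence.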

A value given as a limit tells only on which side of the number the result lay.

In the case of `CCOc1cncc(-c2cnc(C(=O)N[C@@H](CN3CC[C@@](C)(O)C3)c3cc(NS(=O)(=O)C4CC4)ccn3)s2)n1` [I-129, N-((S)-1-(4-(cyclopropanesulfonamido)pyridin-2-yl)-2-((R)-3-hydroxy-3-methylpyrrolidin-1-yl)ethyl)-5-(6-ethoxypyrazin-2-yl)thiazole-2-carboxamide], the half-maximal inhibitory concentration (IC50) was 50 to 100 nM.
For `CCOc1cncc(-c2cnc(C(=O)N[C@@H](CN3CC[C@](C)(O)C3)c3cc(NS(=O)(=O)C4CC4)ccn3)s2)n1` [I-130, N-((S)-1-(4-(cyclopropanesulfonamido)pyridin-2-yl)-2-((S)-3-hydroxy-3-methylpyrrolidin-1-yl)ethyl)-5-(6-ethoxypyrazin-2-yl)thiazole-2-carboxamide], the concentration for half-maximal inhibition (IC50) lay within 5 to 25 nM.
As for `CCOc1cncc(-c2cnc(C(=O)N[C@H](CN3CC[C@](C)(O)C3)c3cc(NS(=O)(=O)C4CC4)ccn3)s2)n1` [I-131, N-((R)-1-(4-(cyclopropanesulfonamido)pyridin-2-yl)-2-((S)-3-hydroxy-3-methylpyrrolidin-1-yl)ethyl)-5-(6-ethoxypyrazin-2-yl)thiazole-2-carboxamide], the IC50 was in the range of 5 to 25 nM.
For `CCOc1cncc(-c2cnc(C(=O)N[C@H](CN3CC[C@@](C)(O)C3)c3cc(NS(=O)(=O)C4CC4)ccn3)s2)n1` [I-132, N-((R)-1-(4-(cyclopropanesulfonamido)pyridin-2-yl)-2-((R)-3-hydroxy-3-methylpyrrolidin-1-yl)ethyl)-5-(6-ethoxypyrazin-2-yl)thiazole-2-carboxamide], the concentration for half-maximal inhibition (IC50) is 5 to 25 nM.
Take `CCOc1cncc(-c2cnc(C(=O)N[C@@H](CN3CCCOCC3)c3cc(NS(=O)(=O)C4CC4)ccn3)s2)n1` [I-134, (S)-N-(1-(4-(cyclopropanesulfonamido)pyridin-2-yl)-2-(1,4-oxazepan-4-yl)ethyl)-5-(6-ethoxypyrazin-2-yl)thiazole-2-carboxamide]: the IC50 was in the range of 5 to 25 nM.
As for `CCOc1cncc(-c2cnc(C(=O)N[C@@H](CN3C[C@@H]4CC[C@H]3CO4)c3cc(NS(=O)(=O)C4CC4)ccn3)s2)n1` [I-135, N-((S)-2-((1S,4S)-2-oxa-5-azabicyclo[2.2.2]octan-5-yl)-1-(4-(cyclopropanesulfonamido)pyridin-2-yl)ethyl)-5-(6-ethoxypyrazin-2-yl)thiazole-2-carboxamide], the figure is ≤ 5 nM.
Regarding `CCOc1cncc(-c2cnc(C(=O)N[C@H](CN3C[C@@H]4CC[C@H]3CO4)c3cc(NS(=O)(=O)C4CC4)ccn3)s2)n1` [I-136, N-((R)-2-((1S,4S)-2-oxa-5-azabicyclo[2.2.2]octan-5-yl)-1-(4-(cyclopropanesulfonamido)pyridin-2-yl)ethyl)-5-(6-ethoxypyrazin-2-yl)thiazole-2-carboxamide], the IC50 was 5 to 25 nM.
As for `CCOc1cncc(-c2cnc(C(=O)N[C@H](CN3CCCC3=O)c3cc(NS(=O)(=O)C4CC4)ccn3)s2)n1` [I-137, (R)-N-(1-(4-(cyclopropanesulfonamido)pyridin-2-yl)-2-(2-oxopyrrolidin-1-yl)ethyl)-5-(6-ethoxypyrazin-2-yl)thiazole-2-carboxamide], the figure is 25 to 50 nM; as for `CCOc1cncc(-c2cnc(C(=O)N[C@@H](CN3CCCC3=O)c3cc(NS(=O)(=O)C4CC4)ccn3)s2)n1` [I-138, (S)-N-(1-(4-(cyclopropanesulfonamido)pyridin-2-yl)-2-(2-oxopyrrolidin-1-yl)ethyl)-5-(6-ethoxypyrazin-2-yl)thiazole-2-carboxamide], 5 to 25 nM.
`CCOc1cncc(-c2cnc(C(=O)N[C@H](Cn3ccccc3=O)c3cc(NS(=O)(=O)C4CC4)ccn3)s2)n1` [I-139, (R)-N-(1-(4-(cyclopropanesulfonamido)pyridin-2-yl)-2-(2-oxopyridin-1(2H)-yl)ethyl)-5-(6-ethoxypyrazin-2-yl)thiazole-2-carboxamide]: the 50% inhibitory concentration (IC50) was 25 to 50 nM.
As to `CCOc1cncc(-c2cnc(C(=O)N[C@@H](Cn3ccccc3=O)c3cc(NS(=O)(=O)C4CC4)ccn3)s2)n1` [I-140, (S)-N-(1-(4-(cyclopropanesulfonamido)pyridin-2-yl)-2-(2-oxopyridin-1(2H)-yl)ethyl)-5-(6-ethoxypyrazin-2-yl)thiazole-2-carboxamide], the IC50 was in the range of 5 to 25 nM.
As for `CCOc1cncc(-c2cnc(C(=O)N(C)[C@@H](CN3CCOCC3)c3cc(NS(=O)(=O)C4CC4)ccn3)s2)n1` [I-141, (S)-N-(1-(4-(cyclopropanesulfonamido)pyridin-2-yl)-2-morpholinoethyl)-5-(6-ethoxypyrazin-2-yl)-N-methylthiazole-2-carboxamide], the figure is 50 to 100 nM; as for `CCOc1cncc(-c2cnc(C(=O)N(C)[C@H](CN3CCOCC3)c3cc(NS(=O)(=O)C4CC4)ccn3)s2)n1` [I-142, (R)-N-(1-(4-(cyclopropanesulfonamido)pyridin-2-yl)-2-morpholinoethyl)-5-(6-ethoxypyrazin-2-yl)-N-methylthiazole-2-carboxamide], > 100 nM; as for `CCOc1cncc(-c2ccc(C(=O)N[C@@H](CN3CCOCC3)c3cc(NS(=O)(=O)C4CC4)ccn3)c(F)c2)n1` [I-143, (S)-N-(1-(4-(cyclopropanesulfonamido)pyridin-2-yl)-2-morpholinoethyl)-4-(6-ethoxypyrazin-2-yl)-2-fluorobenzamide], 50 to 100 nM.
Turning to `CCOc1cncc(-c2ccc(C(=O)N[C@H](CN3CCOCC3)c3cc(NS(=O)(=O)C4CC4)ccn3)c(F)c2)n1` [I-144, (R)-N-(1-(4-(cyclopropanesulfonamido)pyridin-2-yl)-2-morpholinoethyl)-4-(6-ethoxypyrazin-2-yl)-2-fluorobenzamide], the 50% inhibitory concentration (IC50) was in the range of 5 to 25 nM.
As for `O=C(N[C@@H](CN1CCOCC1)c1cc(NS(=O)(=O)C2CC2)ccn1)c1ncc(-c2cnn3ccc(Cl)cc23)s1` [I-145, (S)-5-(5-chloropyrazolo[1,5-a]pyridin-3-yl)-N-(1-(4-(cyclopropanesulfonamido)pyridin-2-yl)-2-morpholinoethyl)thiazole-2-carboxamide], the figure is 5 to 25 nM.
As for `O=C(N[C@H](CN1CCOCC1)c1cc(NS(=O)(=O)C2CC2)ccn1)c1ncc(-c2cnn3ccc(Cl)cc23)s1` [I-146, (R)-5-(5-chloropyrazolo[1,5-a]pyridin-3-yl)-N-(1-(4-(cyclopropanesulfonamido)pyridin-2-yl)-2-morpholinoethyl)thiazole-2-carboxamide], the figure is 5 to 25 nM.
As for `CCOc1cncc(-c2cnc(C(=O)N[C@@H](CN3CCN(C)C(=O)C3)c3cc(NS(=O)(=O)C4CC4)ccn3)s2)n1` [I-147, (S)-N-(1-(4-(cyclopropanesulfonamido)pyridin-2-yl)-2-(4-methyl-3-oxopiperazin-1-yl)ethyl)-5-(6-ethoxypyrazin-2-yl)thiazole-2-carboxamide], the figure is 5 to 25 nM.
In the case of `CCOc1cncc(-c2cnc(C(=O)N[C@H](CN3CCN(C)C(=O)C3)c3cc(NS(=O)(=O)C4CC4)ccn3)s2)n1` [I-148, (R)-N-(1-(4-(cyclopropanesulfonamido)pyridin-2-yl)-2-(4-methyl-3-oxopiperazin-1-yl)ethyl)-5-(6-ethoxypyrazin-2-yl)thiazole-2-carboxamide], the IC50 lay in the range of 5 to 25 nM.
With `CCOc1cncc(-c2cnc(C(=O)N[C@@H](CN3C[C@H]4CC[C@@H]3C4)c3cc(NS(=O)(=O)C4CC4)ccn3)s2)n1` [I-149, N-((S)-2-((1R,4S)-2-azabicyclo[2.2.1]heptan-2-yl)-1-(4-(cyclopropanesulfonamido)pyridin-2-yl)ethyl)-5-(6-ethoxypyrazin-2-yl)thiazole-2-carboxamide] the figure was 50 to 100 nM.
